From patent US10196357B2, “Biaryl compositions and methods for modulating a kinase cascade” (Athenex, Inc., priority 2007, dated 2019)
Where two headings read alike, the source gives them in different places.

Key:
HT29 cell line = assay: BrdU cell growth inhibition, HT29; format: cell-based, human; conditions: for GI50: read-out: GI50; for activity at 0.05 µM / activity at 0.5 µM / activity at 5 µM: HT-29, read-out: HT-29 Growth, % of Control Mean, n = 3; for activity at 0.05 µM: 50 nM; for activity at 0.5 µM: 500 nM
Method: (§1) The GI50s for several of the compounds of the invention were assayed as described herein.
The HT29 cell line is a NCI standard human colon carcinoma cell line.
(§2) In the BrdU Assay for cell growth inhibition, quantitation of cell proliferation was based on the measurement of BrdU incorporation during DNA synthesis. The Cell Proliferation ELISA BrdU assay kit (colorimetric) was obtained from Roche Applied Science and performed as per vendor instructions.
(§3) The growth inhibition (GI) is determined from the formula GI=(T0−Tn×100/T0−CONn) where T0 is the BrdU growth of untreated cells at time “0”, Tn is the BrdU growth of treated cells at day “n” and CONn is the control BrdU growth of control cells at day “n”. The GI50 was extrapolated and the data plotted using XL-Fit 4.0 software.
(§4) For 96 well culture plate experiments, c-Src 3T3 medium was supplemented with 10 mM HEPES buffer. HT-29 cells were seeded in standard tissue culture 96-well plates and c-Src 3T3 cells were seeded in 96-well plates coated with Poly-D-lysine (BIOCOAT™). To increase CO2 diffusion, c-Src 3T3 96-well plates were incubated with their lids raised by ˜2 mm using sterile rubber caps.
(§5) Samples were reconstituted in DMSO at 20 mM and intermediate dilutions made using DMEM containing 10% FBS. […] Plates were assayed for BrdU and the data analyzed as above for GI50.
(§6) All compounds were initially prepared as 20 mM DMSO stock solutions and then diluted into buffer for the in vitro tumor growth assays. NG means no cell growth beyond the control and T means the number of cells in the drug treated wells was less than in the control (i.e. net cell loss).
Growth Inhibition. […] T1 values≤T0 values were designated as T, cytotoxicity.

c-Src 3T3 cells = assay: BrdU cell growth inhibition, c-Src 3T3; format: cell-based, mouse; conditions: Mus musculus; for GI50: c-Src 3T3 (c-Src527F/NIH3T3) cells, read-out: GI50; for activity at 0.1 µM / activity at 1 µM / activity at 10 µM: NIH3T3, read-out: c-Src 3T3 Growth, % of Control Mean, n = 3; for activity at 0.1 µM: 100 nM
Method: as §1
The cells were routinely cultured in DMEM supplemented with Fetal Bovine Serum (2.0% v/V), L-glutamine (2 mM) and Sodium Pyruvate (1 mM).
as §2, §3, §4, §5, §6

[1] = Homo sapiens, HT-29, HT29 (Colon) cells

GI50 (HT29 cell line; [1])	Compound	GI50 (c-Src 3T3 cells)	activity at 0.05 µM (HT29 cell line; Homo sapiens)	activity at 0.5 µM (HT29 cell line; Homo sapiens)	activity at 5 µM (HT29 cell line; Homo sapiens)	activity at 0.1 µM (c-Src 3T3 cells)	activity at 1 µM (c-Src 3T3 cells)	activity at 10 µM (c-Src 3T3 cells)	GI50 (HT29 cell line; HT29 (Colon) cells)
330 nM	CN1CCN(CCOc2cc(OC3CCOCC3)c3c(Nc4c(Cl)ccc5c4OCO5)ncnc3c2)CC1 [AZD0530, reference compound]	203 nM							
	O=C(Cc1ccc(-c2ccccc2)cc1)NCc1cc(O)cc(OCc2ccccc2)c1 [KX1-306]		124%	< 0%	< 0%	47%	< 0%	< 0%	
	O=C(Cc1cccc(-c2ccccc2)c1)NCc1cccc(F)c1 [KX1-307]		85.9%	93.8%	39.4%	65.7%	45.3%	4.2%	
	O=C(Cc1ccc(-c2ccccc2)cc1)Nc1cccc(F)c1 [KX1-308, N-(3-fluorophenyl)-4-biphenylacetamide]		87.9%	76.1%	32.3%	94.5%	77.7%	67.1%	
	O=C(Cc1ccc(-c2ccccc2F)cc1)NCc1cccc(F)c1 [KX1-309]		29.5%	< 0%	< 0%	< 0%	< 0%	< 0%	
	O=C(Cc1ccc(-c2cccc(F)c2)cc1)NCc1cccc(F)c1 [KX1-310, N-(3-fluorobenzyl)-4-(3-fluorophenyl)phenylacetamide]		93.3%	< 0%	< 0%	102%	< 0%	< 0%	
	O=C(Cc1ccc(-c2ccc(F)cc2)cc1)NCc1cccc(F)c1 [KX1-311, N-(3-fluorobenzyl)-4-(4-fluorophenyl)phenylacetamide]		60.4%	< 0%	< 0%	81.3%	< 0%	< 0%	
	CN(Cc1cccc(F)c1)C(=O)Cc1ccc(-c2ccccc2)cc1 [KX1-312, N-(3-fluorobenzyl)-N-methyl-4-biphenylacetamide]		93.7%	67.6%	33.7%	98.5%	94.5%	12.1%	
	O=C(Cc1ccc(-c2ccccc2)cc1F)NCc1cccc(F)c1 [KX1-313, N-(3-fluorobenzyl)-4-phenyl-2-fluorophenylacetamide]		80.2%	< 0%	< 0%	91.6%	< 0%	< 0%	
	O=C(Cc1ccc(-c2ccccc2)nc1)NCc1cccc(F)c1 [KX1-314, N (3-fluorobenzyl)-2-phenylpyridine-5-acetamide]		53.2%	83.7%	14.4%	93.6%	88.4%	39.3%	
	O=C(Cc1ccc(-c2ccccn2)cc1)NCc1cccc(F)c1 [KX1-315, N-(3-Fluoro-benzyl)-2-(4-pyridin-2-yl-phenyl)-acetamide]		66%	50.3%	< 0%	89.3%	88.1%	< 0%	
	O=C(Cc1ccc(-c2cccnc2)cc1)NCc1cccc(F)c1 [KX1-316]	> 200 nM	77.8%	45.1%	< 0%	88.2%	< 0%	< 0%	
	O=C(Cc1ccc(-c2cccc(Cl)c2)nc1)NCc1cccc(F)c1 [KX1-317, 2-[6-(3-Chloro-phenyl)-pyridin-3-yl]-N-(3-fluoro-benzyl)-acetamide]		83.5%	64%	< 0%	94.2%	85.6%	< 0%	
	CCc1ccc(-c2ccc(CC(=O)NCc3cccc(F)c3)cn2)cc1 [KX1-318, 2-[6-(4-Ethyl-phenyl)-pyridin-3-yl]-N-(3-fluoro-benzyl)-acetamide]		165%	93.2%	< 0%	91.4%	71%	< 0%	
	O=C(Cc1ccc(-c2ccccc2)c(F)c1)NCc1cccc(F)c1 [KX1-319, N-(3-Fluoro-benzyl)-2-(2-fluoro-biphenyl-4-yl)-acetamide]		101%	< 0%	< 0%	88.2%	< 0%	< 0%	
	O=C(Cc1ccc(-c2ccc(F)cc2)nc1)NCc1cccc(F)c1 [KX1-320, N-(3-Fluoro-benzyl)-2-[6-(4-fluoro-phenyl)-pyridin-3-yl]-acetamide]		111%	132%	86.2%	90.4%	86.5%	73.1%	
	O=C(Cc1ccc(-c2cccc(F)c2)nc1)NCc1cccc(F)c1 [KX1-321, N-(3-Fluoro-benzyl)-2-[6-(3-fluoro-phenyl)-pyridin-3-yl]-acetamide]		127%	118%	23.7%	95.5%	96.2%	55.8%	
	CCOc1cccc(-c2ccc(CC(=O)NCc3cccc(F)c3)cn2)c1 [KX1-322, 2-[6-(3-Ethoxy-phenyl)-pyridin-3-yl]-N-(3-fluoro-benzyl)-acetamide]	3730 nM	114%	87.2%	< 0%	94.6%	< 0%	< 0%	
	O=C(Cc1ccc(-c2ccc(C(=O)O)cc2)nc1)NCc1cccc(F)c1 [KX1-323, 4-{5-[(3-Fluoro-benzylcarbamoyl)-methyl]-pyridin-2-yl}-benzoic acid]		106%	107%	60.8%	96.6%	97.3%	93.2%	
	CCOc1ccccc1-c1ccc(CC(=O)NCc2cccc(F)c2)cn1 [KX1-324, 2-[6-(2-Ethoxy-phenyl)-pyridin-3-yl]-N-(3-fluoro-benzyl)-acetamide]		91%	95.7%	0%	96%	90%	< 0%	
215 nM	CCOc1ccc(-c2ccc(CC(=O)NCc3cccc(F)c3)cn2)cc1 [KX1-325, 2-[6-(4-Ethoxy-phenyl)-pyridin-3-yl]-N-(3-fluoro-benzyl)-acetamide]	207 nM	85%	< 0%	< 0%	97.6%	54.2%	< 0%	
	CS(=O)(=O)c1ccc(-c2ccc(CC(=O)NCc3cccc(F)c3)cn2)cc1 [KX1-326, N-(3-Fluoro-benzyl)-2-[6-(4-methanesulfonyl-phenyl)-pyridin-3-yl]-acetamide]		65.4%	73.2%	43.7%	92.2%	87.3%	55.7%	
680 nM	O=C(Cc1ccc(-c2ccncc2)cc1)NCc1cccc(F)c1 [KX1-327]	> 200 nM	31.6%	< 0%	< 0%	81.3%	< 0%	< 0%	
	O=C(Cc1ccc(-c2cc[n+]([O-])cc2)cc1)NCc1cccc(F)c1 [KX1-357]					101%	95.4%	9%	
	CCOc1ccc(-c2ccc(CC(=O)NCc3cccc(F)c3)c[n+]2[O-])cc1 [KX1-358, 2-[6-(4-Ethoxy-phenyl)-1-oxo-pyridin-3-yl]-N-(3-fluoro-benzyl)-acetamide]					92.2%	91.4%	82.7%	
	CC(C)COc1cc(F)cc(CNC(=O)Cc2ccc(-c3ccc(CN4CCN(C)CC4)cc3)cn2)c1 [KX2-385]	232 nM							
	O=C1[O][Pt]2([NH][C@@H]3CCCC[C@H]3[NH]2)[O]C1=O [oxaliplatin, reference compound]								1480 nM
